As a reminder, the IC50 is the point on the concentration scale where inhibition reaches its midpoint.

Each structure is given as a SMILES string. Where two headings read alike, the source gives them in different places. Some results are limits rather than exact numbers.

Series [1] deals with T1, N-terminally FLAG-tagged PARP2 (amino acids 1-583) (Homo sapiens, UniProt Q9UGN5).
T1 construct: N-terminally FLAG-tagged PARP2 (amino acids 1-583)
In words: PARP2 probe displacement HTRF assay. As to conditions: binned Kd. Type of series: binding. Here is the method:
Data analysis was performed identical as for PARP1.
In general terms: TR-FRET usually uses a lanthanide donor and a delayed reading to cut background.

Series [2] concerns the target T2, PARP1 (Homo sapiens, UniProt P09874).
T2 construct: host or cells: HEK293
In words: NanoBRET cellular target occupancy assay, PARP1. Format: cell-based. As to conditions: for Kd: HEK293 cells transiently transfected with PARP1-NanoLuc fusion, tracer 11 nM, 2 hours at 37° C., Kd by Cheng-Prussoff; for Selectivity: NanoBRET, PARP1 over PARP2, Kd (PARP2)/Kd (PARP1). (In general: Bioluminescence resonance energy transfer reports proximity on the nanometre scale.)

In the next series the target is T3, PARP2 (Homo sapiens, UniProt Q9UGN5).
T3 construct: host or cells: HEK293
T3 sequence (Q9UGN5 whole entry): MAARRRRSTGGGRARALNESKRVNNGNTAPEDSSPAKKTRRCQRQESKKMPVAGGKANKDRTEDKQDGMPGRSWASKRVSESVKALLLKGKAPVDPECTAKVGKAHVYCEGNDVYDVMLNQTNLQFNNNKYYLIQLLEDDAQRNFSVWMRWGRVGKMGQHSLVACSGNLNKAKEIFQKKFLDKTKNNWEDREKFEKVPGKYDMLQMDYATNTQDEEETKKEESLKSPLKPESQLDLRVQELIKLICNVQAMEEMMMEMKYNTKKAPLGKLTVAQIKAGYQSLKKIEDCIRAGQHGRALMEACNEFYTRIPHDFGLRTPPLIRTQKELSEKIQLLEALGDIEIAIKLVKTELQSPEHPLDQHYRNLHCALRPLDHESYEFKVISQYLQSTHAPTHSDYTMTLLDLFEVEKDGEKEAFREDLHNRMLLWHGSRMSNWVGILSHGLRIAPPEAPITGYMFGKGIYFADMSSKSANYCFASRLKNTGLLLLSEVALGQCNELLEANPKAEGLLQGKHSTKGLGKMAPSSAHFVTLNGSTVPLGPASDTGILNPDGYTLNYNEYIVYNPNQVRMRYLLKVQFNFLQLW
In words: NanoBRET cellular target occupancy assay, PARP2. As to conditions: HEK293 cells transiently transfected with PARP2-NanoLuc fusion; tracer 2 nM; 2 hours at 37° C.; Kd by Cheng-Prussoff. Type of series: cell-based. An excerpt: NanoBRET Cellular Target Occupancy Assay

Series [3] deals with T4, full length N-terminally FLAG-tagged PARP1 (Homo sapiens, UniProt P09874). Briefly: PARP1 probe displacement HTRF assay. As to conditions: for Selectivity: PARP1 over PARP2, ratio Kd (PARP2)/Kd (PARP1); for Kd: binned Kd.
T4 sequence (P09874 whole entry): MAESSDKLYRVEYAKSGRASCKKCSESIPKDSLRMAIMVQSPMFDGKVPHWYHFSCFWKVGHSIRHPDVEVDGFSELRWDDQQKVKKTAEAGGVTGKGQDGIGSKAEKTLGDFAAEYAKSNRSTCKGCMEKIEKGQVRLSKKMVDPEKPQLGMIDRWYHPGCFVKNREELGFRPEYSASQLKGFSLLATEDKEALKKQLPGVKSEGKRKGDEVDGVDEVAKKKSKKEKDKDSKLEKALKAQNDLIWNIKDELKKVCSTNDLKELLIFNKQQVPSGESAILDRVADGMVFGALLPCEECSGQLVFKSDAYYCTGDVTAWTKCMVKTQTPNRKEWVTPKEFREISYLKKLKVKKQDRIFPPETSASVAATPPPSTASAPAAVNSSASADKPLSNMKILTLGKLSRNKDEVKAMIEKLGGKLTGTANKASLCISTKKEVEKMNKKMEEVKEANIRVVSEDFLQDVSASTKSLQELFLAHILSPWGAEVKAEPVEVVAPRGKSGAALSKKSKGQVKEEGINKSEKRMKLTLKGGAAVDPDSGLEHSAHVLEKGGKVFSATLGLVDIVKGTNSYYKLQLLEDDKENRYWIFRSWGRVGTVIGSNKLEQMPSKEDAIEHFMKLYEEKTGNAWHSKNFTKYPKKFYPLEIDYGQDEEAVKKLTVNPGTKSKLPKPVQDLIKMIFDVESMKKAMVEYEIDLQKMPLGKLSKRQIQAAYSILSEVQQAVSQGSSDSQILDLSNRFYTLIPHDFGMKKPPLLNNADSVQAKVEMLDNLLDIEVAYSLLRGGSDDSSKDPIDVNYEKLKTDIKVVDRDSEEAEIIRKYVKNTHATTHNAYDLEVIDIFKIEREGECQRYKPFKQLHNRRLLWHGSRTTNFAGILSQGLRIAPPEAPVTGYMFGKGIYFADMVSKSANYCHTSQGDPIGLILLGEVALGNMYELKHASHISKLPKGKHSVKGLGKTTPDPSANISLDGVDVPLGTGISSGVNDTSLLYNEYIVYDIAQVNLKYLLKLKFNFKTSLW
In series [4] the target is T4, full length N-terminally FLAG-tagged PARP1. Briefly: PARP1 biochemical DELFIA assay (auto-PARylation). Also on record: recombinant full length human N-terminally FLAG-tagged PARP1.
The test system of series [5] is PARP1. As to conditions: Johannes et al. J. Med. Chem. 2021; cited from earlier work.
For series [6] the following is noted: rodent models; compared with first-generation PARP inhibitors; Illuzzi et al. 2022; cited from earlier work.
Setting [7] is: read-out: PARP1 HTRF, probe displacement HTRF.
Where [8] appears, read: binned IC50, biochemical auto-PARylation assay.
[9] abbreviates: PARP1 HTRF, probe displacement HTRF.

T2 sequence (P09874 whole entry): as above
T1 sequence (Q9UGN5 whole entry, the tested form may be a part): as the sequence (Q9UGN5 whole entry) above

In the case of `O=C(NC1CC1)c1ccc(N2CCC(N3CCC(c4cc5cccc(F)c5c(=O)[nH]4)C3)CC2)cn1` (single isomer, unassigned) [Compound 339a], the Kd in series [1] (probe displacement HTRF) is 10 to 100 nM; at PARP1 [2] it was under 10 nM; on PARP2 it was 10 to 100 nM; in series [3] (setting [7]) it was under 10 nM. In addition, the Selectivity result (at PARP1 [2]; in series [3] (probe displacement HTRF)) was “+ (+ indicates a value of 10 to less than 50)” throughout. In addition, the IC50 in series [4] (setting [8]) is under 10 nM.

As for `CNC(=O)c1ccc(N2CCC(N3CCC(c4cc5ncc(Cl)cc5c(=O)[nH]4)C3)CC2)c(F)n1` (single isomer, unassigned) [Compound 344b], the Kd in series [1] (probe displacement HTRF) was 1000 to 10000 nM; at PARP1 [2], under 10 nM; at PARP2 it was over 10000 nM; in series [3] (setting [7]) it was under 10 nM. In addition, the Selectivity result (on PARP1 [2]; in series [3] (probe displacement HTRF)) was “+++ (+++ indicate a value of at least 100)” each time. Also, in series [4] (setting [8]), the 50% inhibitory concentration (IC50) is under 10 nM.

Turning to `CCc1ccc(C2CCN(C3CCN(c4ccc(C(=O)NC5CC5)nc4F)CC3)C2)[nH]c1=O` (single isomer, unassigned) [Compound 353a], the Kd in series [1] (probe displacement HTRF) is 100 to 1000 nM; at PARP1 [2] it was under 10 nM; on PARP2 it was 100 to 1000 nM; in series [3] (setting [7]), under 10 nM. Moreover, the Selectivity entry (at PARP1 [2]; in series [3] (probe displacement HTRF)) was “+++ (+++ indicate a value of at least 100)” throughout. The IC50 in series [4] (setting [8]) is under 10 nM.

`CCc1ccc(C2CCN(C3CCN(c4ccc(C(=O)NCC(F)F)nc4)CC3)C2)[nH]c1=O` (single isomer, unassigned) [Compound 354b]: the Kd in series [1] (probe displacement HTRF) is 100 to 1000 nM; on PARP1 [2] it was under 10 nM; on PARP2, 100 to 1000 nM; in series [3] (setting [7]), under 10 nM. For the same compound, the Selectivity result (on PARP1 [2]; in series [3] (probe displacement HTRF)) was “+++ (+++ indicate a value of at least 100)” each time. The IC50 in series [4] (setting [8]) is under 10 nM.

With `CCc1cc2ncc(CN3CCN(c4ccc(C(=O)NC)nc4)CC3)cc2[nH]c1=O` [AZD5305], the “selectivity over PARP2” value in the series on PARP1 [5] is 500 fold. For the same compound, in series [6], the haematotoxicity entry is “significantly less haematotoxicity”.

For `CNC(=O)c1ccc(N2CCC(N3CC4(c5nc6ccccc6c(=O)[nH]5)CC3C4)CC2)cn1` [Compound 192, N-methyl-5-(4-(4-(4-oxo-3,4-dihydroquinazolin-2-yl)-2-azabicyclo[2.1.1]hexan-2-yl)piperidin-1-yl)picolinamide], the Kd in series [1] (PARP2 probe displacement HTRF) was 1000 to 10000 nM; on PARP1 [2], under 10 nM; on PARP2, 1000 to 10000 nM; in series [3] (PARP1 HTRF, PARP1 probe displacement HTRF), under 10 nM. The Selectivity result (at PARP1 [2]; in series [3] (probe displacement HTRF)) was “+++ (+++ indicate a value of at least 100)” in each case. For the same compound, in series [4] (binned IC50, PARP1 biochemical DELFIA assay), the IC50 is under 10 nM.

For the compound `CNC(=O)c1ccc(N2CCC(N3CC4(c5nc6cccc(F)c6c(=O)[nH]5)CC3C4)CC2)c(F)n1` [Compound 228], the Kd is 1000 to 10000 nM in series [1] (probe displacement HTRF), under 10 nM on PARP1 [2], over 10000 nM at PARP2 and under 10 nM in series [3] (setting [9]). Also, the Selectivity entry (on PARP1 [2]; in series [3] (probe displacement HTRF)) was “+++ (+++ indicate a value of at least 100)” throughout. Also, the IC50 in series [4] (setting [8]) was under 10 nM.

For `CNC(=O)c1ccc(N2CCC(N3CC4(c5nc6ccc(F)cc6c(=O)[nH]5)CC3C4)CC2)c(F)n1` [Compound 259, 6-fluoro-5-(4-(4-(6-fluoro-4-oxo-3,4-dihydroquinazolin-2-yl)-2-azabicyclo[2.1.1]hexan-2-yl)piperidin-1-yl)-N-methylpicolinamide], the Kd was 100 to 1000 nM in series [1] (probe displacement HTRF), under 10 nM on PARP1 [2], 1000 to 10000 nM on PARP2 and under 10 nM in series [3] (setting [9]). Besides, the Selectivity result (on PARP1 [2]; in series [3] (probe displacement HTRF)) was “+++ (+++ indicate a value of at least 100)” each time. Besides, the IC50 in series [4] (setting [8]) is under 10 nM.

Regarding `CNC(=O)c1ccc(N2CCC(N3CC4(c5nc6ccccc6c(=O)[nH]5)CC3C4)CC2)c(F)n1` [Compound 260], the Kd in series [1] (probe displacement HTRF) is 1000 to 10000 nM; on PARP1 [2] it was under 10 nM; at PARP2, over 10000 nM; in series [3] (setting [9]) it was under 10 nM. Further, the Selectivity result (on PARP1 [2]; in series [3] (probe displacement HTRF)) was “+++ (+++ indicate a value of at least 100)” each time. Moreover, in series [4] (setting [8]), the IC50 was under 10 nM.

With `CNC(=O)c1ccc(N2CCC(N3CC4(c5nc6c(c(=O)[nH]5)CCC6)CC3C4)CC2)cn1` [Compound 295], the Kd in series [1] (probe displacement HTRF) is over 10000 nM; on PARP1 [2] it was 10 to 100 nM; on PARP2, over 10000 nM; in series [3] (setting [9]), under 10 nM. Besides, the Selectivity result on PARP1 [2] is given as “++ (++ indicates a value of 50 to less than 100)”; in series [3] (probe displacement HTRF) it was “+++ (+++ indicate a value of at least 100)”. Also, the IC50 in series [4] (setting [8]) is under 10 nM.

As to `CCc1cnc(C23CC(C2)N(C2CCN(c4ccc(C(=O)NC)nc4)CC2)C3)[nH]c1=O` [Compound 299, 5-(4-(4-(5-ethyl-6-oxo-1,6-dihydropyrimidin-2-yl)-2-azabicyclo[2.1.1]hexan-2-yl)piperidin-1-yl)-N-methylpicolinamide], the Kd is over 10000 nM in series [1] (probe displacement HTRF), 10 to 100 nM on PARP1 [2], over 10000 nM on PARP2 and under 10 nM in series [3] (setting [9]). The Selectivity result (at PARP1 [2]; in series [3] (probe displacement HTRF)) was “+++ (+++ indicate a value of at least 100)” throughout. In addition, the IC50 in series [4] (setting [8]) is under 10 nM.

Regarding `CCc1cnc(C23CC(C2)N(C2CCN(c4ccc(C(=O)NC)nc4F)CC2)C3)[nH]c1=O` [Compound 300], the Kd in series [1] (probe displacement HTRF) is 1000 to 10000 nM; on PARP1 [2], under 10 nM; on PARP2, over 10000 nM; in series [3] (setting [9]), under 10 nM. The Selectivity result (on PARP1 [2]; in series [3] (probe displacement HTRF)) was “+++ (+++ indicate a value of at least 100)” each time. The IC50 in series [4] (setting [8]) is under 10 nM.

For `CNC(=O)c1ccc(N2CCC(N3CC4(c5nc6c(c(=O)[nH]5)CCC6)CC3C4)CC2)c(F)n1` [Compound 302], the Kd is over 10000 nM in series [1] (probe displacement HTRF), 10 to 100 nM on PARP1 [2], over 10000 nM at PARP2 and under 10 nM in series [3] (setting [9]). Also, the Selectivity result (on PARP1 [2]; in series [3] (probe displacement HTRF)) was “+++ (+++ indicate a value of at least 100)” in each case. Further, in series [4] (setting [8]), the IC50 was under 10 nM.

Take `CNC(=O)c1ccc(N2CCC(N3CC4(c5nc6c(c(=O)[nH]5)CCCN6)CC3C4)CC2)cn1` [Compound 312]: the Kd in series [1] (probe displacement HTRF) is 100 to 1000 nM; on PARP1 [2] it was 100 to 1000 nM; on PARP2 it was 1000 to 10000 nM; in series [3] (setting [9]) it was under 10 nM. The Selectivity result on PARP1 [2] was “++ (++ indicates a value of 50 to less than 100)”; in series [3] (probe displacement HTRF), “+++ (+++ indicate a value of at least 100)”. Besides, the IC50 in series [4] (setting [8]) was under 10 nM.

`CNC(=O)c1ccc(N2CCC(N3CC4(c5nc6c(c(=O)[nH]5)CCCN6C)CC3C4)CC2)cn1` [Compound 330]: the Kd was 10 to 100 nM in series [1] (probe displacement HTRF), 10 to 100 nM on PARP1 [2], 100 to 1000 nM at PARP2 and under 10 nM in series [3] (setting [9]). The Selectivity result (at PARP1 [2]; in series [3] (probe displacement HTRF)) was “+ (+ indicates a value of 10 to less than 50)” throughout. Further, the IC50 in series [4] (setting [8]) was under 10 nM.

(Values after patent US20250152585A1, “PHARMACEUTICAL COMPOUND” (Duke Street Bio Limited, priority 2022, published 2025).)
